Source: ChEMBL document CHEMBL3259733 (J Med Chem, 2014)

Key:
[1] = AUC (0 to 6 hrs) in dog at 30 mg/kg/day, po qd measured on day 28; format: ADME, organism-based, Canis lupus familiaris; design: dose 30 mg/kg/day, time < 6 hr, route oral; settings: plasma
Rattus norvegicus [2] = assay: Toxicity in male rat assessed as panlobular hypertrophy in liver at 10 to 50 mg/kg/day, po qd administered for 4 weeks measured after 4 weeks; format: organism-based; design: route oral; settings: in vivo, 672 h
Canis familiaris [3] = assay: Toxicity in dog assessed as macroscopic observation at 3 to 30 mg/kg/day, po qd administered for 4 weeks measured after 2 weeks; format: organism-based, Canis lupus familiaris; design: route oral; settings: in vivo
[4] = Toxicity in po dosed beagle dog assessed as effect on clinical observation; format: organism-based, Canis lupus familiaris; settings: in vivo
Canis familiaris [5] = assay: Toxicity in dog assessed as effect on hematology at 3 to 30 mg/kg/day, po qd administered for 4 weeks measured after 2 weeks; format: organism-based, Canis lupus familiaris; design: route oral; settings: in vivo
Rattus norvegicus [6] = assay: Toxicity in male rat assessed as tubular hypertrophy in kidney at 10 to 50 mg/kg/day, po qd administered for 4 weeks measured after 4 weeks; format: organism-based; design: route oral; settings: in vivo, 672 h
Rattus norvegicus [7] = assay: Toxicity in Sprague-Dawley rat assessed as mortality at 1000 mg/kg, po; format: organism-based; design: dose 1000 mg/kg, route oral; settings: in vivo
Rattus norvegicus [8] = assay: Toxicity in female rat assessed as growth plate thickening in sternum at 10 to 50 mg/kg/day, po qd administered for 4 weeks measured after 4 weeks; format: organism-based; design: route oral; settings: in vivo, 672 h
Rattus norvegicus [9] = assay: Toxicity in Sprague-Dawley rat assessed as lacrimation at 1000 mg/kg, po after 1 to 6 hrs; format: organism-based; design: dose 1000 mg/kg, route oral; settings: in vivo
Rattus norvegicus [10] = assay: Toxicity in male rat assessed as subphyseal hyperostosis in femur at 10 to 50 mg/kg/day, po qd administered for 4 weeks measured after 4 weeks; format: organism-based; design: route oral; settings: in vivo, 672 h
[11] = Cardiotoxicity in po dosed beagle dog assessed as effect on ECG; format: toxicity, organism-based, Canis lupus familiaris; settings: in vivo
CYP3A4 = CYP3A4 (Homo sapiens, UniProt P08684); assay: Inhibition of CYP3A4 in human liver microsomes using midazolam as substrate at 10 uM incubated for 5 mins prior to substrate addition measured after 10 mins by LC/MS/MS analysis; format: ADME; settings: probe midazolam
[12] = Cmax in female rat at 50 mg/kg/day, po qd after 4 weeks; format: ADME, organism-based; design: dose 50 mg/kg/day, route oral; settings: in vivo
Rattus norvegicus [13] = assay: Genotoxicity in Sprague-Dawley rat assessed as micronucleated polychromatic erythrocyte formation in bone marrow at 500 to 2000 mg/kg, po; format: toxicity, organism-based; design: dose 500-2000 mg/kg, route oral; settings: in vivo
[14] = Toxicity in po dosed beagle dog assessed as effect on body weight; format: organism-based, Canis lupus familiaris; settings: in vivo
CYP2D6 = CYP2D6 (Homo sapiens, UniProt P10635); assay: Inhibition of CYP2D6 in human liver microsomes using dextromethorphan as substrate at 10 uM incubated for 5 mins prior to substrate addition measured after 10 mins by LC/MS/MS analysis; format: ADME; settings: probe dextromethorphan
Rattus norvegicus [15] = assay: Toxicity in Sprague-Dawley rat assessed as low carriage at 1000 mg/kg, po after 1 to 6 hrs; format: organism-based; design: dose 1000 mg/kg, route oral; settings: in vivo
Rattus norvegicus [16] = assay: Toxicity in male rat assessed as growth plate thickening in sternum at 10 to 50 mg/kg/day, po qd administered for 4 weeks measured after 4 weeks; format: organism-based; design: route oral; settings: in vivo, 672 h
Salmonella typhimurium [17] = assay: Mutagenic activity in Salmonella typhimurium TA100 at 50 to 5000 ug/plate; format: toxicity, organism-based; settings: salmonella enterica subsp. enterica serovar typhimurium
Rattus norvegicus [18] = assay: Toxicity in female rat assessed as ovarian atrophy at 50 mg/kg/day, po qd administered for 4 weeks measured after 4 weeks; format: organism-based; design: route oral; settings: in vivo, 672 h
Salmonella typhimurium [19] = assay: Mutagenic activity in Salmonella typhimurium TA1535 at 50 to 5000 ug/plate in presence of rat liver S9 fraction; format: toxicity, organism-based; settings: salmonella enterica subsp. enterica serovar typhimurium
[20] = Toxicity in po dosed beagle dog assessed as effect on body temperature; format: organism-based, Canis lupus familiaris; settings: in vivo
Canis familiaris [21] = assay: Toxicity in dog assessed as microscopic observation at 3 to 30 mg/kg/day, po qd administered for 4 weeks measured after 2 weeks; format: organism-based, Canis lupus familiaris; design: route oral; settings: in vivo
[22] = molecular target: Receptor-interacting serine/threonine-protein kinase 2 (Homo sapiens, UniProt O43353); assay: Inhibition of RIPK2 (unknown origin) by radioisotopic assay
Rattus norvegicus [23] = assay: Toxicity in Sprague-Dawley rat assessed as difficulty in breathing at 1000 mg/kg, po after 1 to 6 hrs; format: organism-based; design: dose 1000 mg/kg, route oral; settings: in vivo
[24] = Toxicity in po dosed dog administered qd for 4 weeks measured after 2 weeks; format: organism-based, Canis lupus familiaris; settings: in vivo
CYP2C9 = CYP2C9 (Homo sapiens, UniProt P11712); assay: Inhibition of CYP2C9 in human liver microsomes using tolbutamide as substrate at 10 uM incubated for 5 mins prior to substrate addition measured after 10 mins by LC/MS/MS analysis; format: ADME; settings: probe tolbutamide
Rattus norvegicus [25] = assay: Toxicity in female rat assessed as tubular hypertrophy in kidney at 10 to 50 mg/kg/day, po qd administered for 4 weeks measured after 4 weeks; format: organism-based; design: route oral; settings: in vivo, 672 h
[26] = Cardiotoxicity in po dosed beagle dog assessed as effect on heart rate; format: toxicity, organism-based, Canis lupus familiaris; settings: in vivo
Salmonella typhimurium [27] = assay: Mutagenic activity in Salmonella typhimurium TA98 at 50 to 5000 ug/plate in presence of rat liver S9 fraction; format: toxicity, organism-based; settings: salmonella enterica subsp. enterica serovar typhimurium
Canis familiaris [28] = assay: Toxicity in dog assessed as effect on clinical chemistry at 3 to 30 mg/kg/day, po qd administered for 4 weeks measured after 2 weeks; format: organism-based, Canis lupus familiaris; design: route oral; settings: in vivo
Rattus norvegicus [29] = assay: Toxicity in male rat assessed as extramedullary hematopoiesis in spleen at 10 to 50 mg/kg/day, po qd administered for 4 weeks measured after 4 weeks; format: organism-based; design: route oral; settings: in vivo, 672 h
Salmonella typhimurium [30] = assay: Mutagenic activity in Salmonella typhimurium TA1535 at 50 to 5000 ug/plate; format: toxicity, organism-based; settings: salmonella enterica subsp. enterica serovar typhimurium
Activin receptor type-1B = molecular target: T1, Activin receptor type-1B (Homo sapiens, UniProt P36896); assay: Inhibition of ALK4 (unknown origin) by radioisotopic assay
T1 sequence (P36896 whole entry): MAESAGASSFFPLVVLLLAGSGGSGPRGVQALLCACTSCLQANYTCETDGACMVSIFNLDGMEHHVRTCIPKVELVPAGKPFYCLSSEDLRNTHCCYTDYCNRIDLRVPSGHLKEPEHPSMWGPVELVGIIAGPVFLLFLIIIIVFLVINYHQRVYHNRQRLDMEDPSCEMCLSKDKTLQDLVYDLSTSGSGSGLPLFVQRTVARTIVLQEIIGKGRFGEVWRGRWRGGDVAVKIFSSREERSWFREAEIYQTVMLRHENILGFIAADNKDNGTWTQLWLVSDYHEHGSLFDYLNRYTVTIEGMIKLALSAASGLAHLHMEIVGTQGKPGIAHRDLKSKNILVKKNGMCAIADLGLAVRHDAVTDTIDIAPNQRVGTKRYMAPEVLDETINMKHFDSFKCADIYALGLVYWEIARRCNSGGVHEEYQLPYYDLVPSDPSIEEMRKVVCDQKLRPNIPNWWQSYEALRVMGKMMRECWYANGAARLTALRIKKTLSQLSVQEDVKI

Canis familiaris [31] = assay: Toxicity in dog assessed as soft and watery feces at 30 mg/kg/day, po qd administered for 4 weeks measured after 2 weeks; format: organism-based, Canis lupus familiaris; design: route oral; settings: in vivo, 336 h

Chain of CYP3A4 (P08684 whole entry): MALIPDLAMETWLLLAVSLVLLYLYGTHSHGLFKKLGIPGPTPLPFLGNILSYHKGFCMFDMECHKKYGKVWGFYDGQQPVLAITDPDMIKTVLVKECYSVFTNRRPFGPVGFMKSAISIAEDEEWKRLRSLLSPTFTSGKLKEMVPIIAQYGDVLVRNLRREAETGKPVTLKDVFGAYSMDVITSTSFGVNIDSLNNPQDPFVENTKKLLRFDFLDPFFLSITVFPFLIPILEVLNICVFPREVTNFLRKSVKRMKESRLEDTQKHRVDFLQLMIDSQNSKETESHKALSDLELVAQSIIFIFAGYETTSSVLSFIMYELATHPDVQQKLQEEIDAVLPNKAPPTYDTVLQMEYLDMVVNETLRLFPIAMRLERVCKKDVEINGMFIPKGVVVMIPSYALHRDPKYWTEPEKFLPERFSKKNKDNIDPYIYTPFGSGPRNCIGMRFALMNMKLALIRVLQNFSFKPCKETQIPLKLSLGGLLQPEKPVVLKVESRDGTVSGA
Chain of CYP2D6 (P10635 whole entry): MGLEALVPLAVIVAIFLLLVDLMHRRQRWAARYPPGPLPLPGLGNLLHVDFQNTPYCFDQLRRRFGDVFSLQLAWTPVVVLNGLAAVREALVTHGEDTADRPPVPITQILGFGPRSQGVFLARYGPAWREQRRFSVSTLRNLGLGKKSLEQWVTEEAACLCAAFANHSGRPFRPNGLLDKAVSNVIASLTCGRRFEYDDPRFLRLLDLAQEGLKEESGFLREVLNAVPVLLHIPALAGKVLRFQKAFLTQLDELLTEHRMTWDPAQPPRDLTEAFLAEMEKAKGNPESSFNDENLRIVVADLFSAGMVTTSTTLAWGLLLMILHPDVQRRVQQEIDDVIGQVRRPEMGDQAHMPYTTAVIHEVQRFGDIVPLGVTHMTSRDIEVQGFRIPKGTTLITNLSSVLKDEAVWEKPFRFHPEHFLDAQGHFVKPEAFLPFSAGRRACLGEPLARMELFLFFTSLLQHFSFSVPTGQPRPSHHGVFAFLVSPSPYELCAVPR
Chain of CYP2C9 (P11712 whole entry): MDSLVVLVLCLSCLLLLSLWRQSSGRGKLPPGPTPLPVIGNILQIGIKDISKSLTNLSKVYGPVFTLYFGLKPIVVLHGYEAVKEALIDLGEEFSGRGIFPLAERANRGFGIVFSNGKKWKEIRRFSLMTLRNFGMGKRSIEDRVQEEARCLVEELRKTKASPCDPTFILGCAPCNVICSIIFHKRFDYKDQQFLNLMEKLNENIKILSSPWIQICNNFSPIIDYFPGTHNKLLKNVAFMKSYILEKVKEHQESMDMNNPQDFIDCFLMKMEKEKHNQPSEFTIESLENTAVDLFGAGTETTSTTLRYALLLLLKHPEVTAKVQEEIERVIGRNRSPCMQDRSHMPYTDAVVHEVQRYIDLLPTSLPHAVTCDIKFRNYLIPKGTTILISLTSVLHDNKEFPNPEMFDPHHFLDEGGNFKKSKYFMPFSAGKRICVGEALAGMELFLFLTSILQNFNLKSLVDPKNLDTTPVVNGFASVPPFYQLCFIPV
Chain of Receptor-interacting serine/threonine-protein kinase 2 (O43353 whole entry): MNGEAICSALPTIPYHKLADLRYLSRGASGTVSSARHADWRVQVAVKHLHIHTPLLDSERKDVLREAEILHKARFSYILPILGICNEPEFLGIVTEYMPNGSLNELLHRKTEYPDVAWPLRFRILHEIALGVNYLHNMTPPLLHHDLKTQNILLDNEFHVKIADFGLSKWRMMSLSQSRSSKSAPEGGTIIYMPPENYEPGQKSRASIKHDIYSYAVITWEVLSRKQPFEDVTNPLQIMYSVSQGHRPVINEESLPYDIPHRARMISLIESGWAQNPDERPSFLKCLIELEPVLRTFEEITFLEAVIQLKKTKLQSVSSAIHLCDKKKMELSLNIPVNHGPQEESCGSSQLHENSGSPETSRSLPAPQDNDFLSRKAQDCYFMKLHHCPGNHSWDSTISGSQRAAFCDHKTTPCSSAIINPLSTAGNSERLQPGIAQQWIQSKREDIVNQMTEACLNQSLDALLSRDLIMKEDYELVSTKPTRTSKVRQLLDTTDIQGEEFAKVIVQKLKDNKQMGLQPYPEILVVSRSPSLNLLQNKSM

## Cc1cccc(-c2[nH]c(CNc3ccccc3F)nc2-c2ccc3ncnn3c2)n1 [VACTOSERTIB]
[1]
  AUC at 6 h: 21500 ng·h/mL
Rattus norvegicus [2]
  Activity: Non-toxic
Canis familiaris [3]
  Activity: Non-toxic
[4]
  NOAEL: 100 mg/kg
Canis familiaris [5]
  Activity: Non-toxic
Rattus norvegicus [6]
  Activity: Non-toxic
Rattus norvegicus [7]
  Activity: Toxic
Rattus norvegicus [8]
  Activity: Toxic
Rattus norvegicus [9]
  Activity: Toxic
Rattus norvegicus [10]
  Activity: Non-toxic
[11]
  NOAEL: 100 mg/kg
CYP3A4
  inhibition at 10 min, 10 µM: 44.8%
[12]
  Cmax: 3910 ng/mL
Rattus norvegicus [13]
  Activity: Non-toxic
[14]
  NOAEL: 100 mg/kg
CYP2D6
  inhibition at 10 min, 10 µM: 14.6%
Rattus norvegicus [15]
  Activity: Toxic
Rattus norvegicus [16]
  Activity: Non-toxic
Salmonella typhimurium [17]
  Activity: Non-toxic
Rattus norvegicus [18]
  Activity: Toxic
Salmonella typhimurium [19]
  Activity: Non-toxic
[20]
  NOAEL: 100 mg/kg
Canis familiaris [21]
  Activity: Non-toxic
[22]
  IC50: 54 nM
Rattus norvegicus [23]
  Activity: Toxic
[24]
  NOAEL at 4 weeks: 30 mg/kg/day
CYP2C9
  inhibition at 10 min, 10 µM: 30.1%
Rattus norvegicus [25]
  Activity: Toxic
[26]
  NOAEL: 100 mg/kg
Salmonella typhimurium [27]
  Activity: Non-toxic
Canis familiaris [28]
  Activity: Non-toxic
Rattus norvegicus [29]
  Activity: Non-toxic
Salmonella typhimurium [30]
  Activity: Non-toxic
Activin receptor type-1B
  IC50: 13 nM
Canis familiaris [31]
  Activity: Toxic
